Measured values published in ChEMBL document CHEMBL3792319, “Synthesis and antitubercular activity of 1,2,4-trisubstitued piperazines” (Bioorg Med Chem Lett, 2016).
Values after ≈ are worked out from the molar mass of the structure shown.

Key:
Type in all cases: functional
[1] = test system: Mycobacterium tuberculosis; test: Antitubercular activity against rifampicin-resistant Mycobacterium tuberculosis H37Rv isolate 1 by two-fold serial dilution method
[2] = test system: Mycobacterium tuberculosis; test: Antitubercular activity against fluoroquinolone-resistant Mycobacterium tuberculosis H37Rv isolate 1 by two-fold serial dilution method
[3] = test system: Mycobacterium tuberculosis; test: Antitubercular activity against isoniazid-resistant Mycobacterium tuberculosis H37Rv isolate 1 by two-fold serial dilution method
[4] = test system: Mycobacterium tuberculosis; test: Antitubercular activity against rifampicin-resistant Mycobacterium tuberculosis H37Rv isolate 2 by two-fold serial dilution method
[5] = test system: Mycobacterium tuberculosis; test: Antitubercular activity against isoniazid-resistant Mycobacterium tuberculosis H37Rv isolate 2 by two-fold serial dilution method

Structure (SMILES) | MIC [1] | MIC [2] | MIC [3] | MIC [4] | MIC [5]
CNC[C@@H](Cc1ccccc1)N1CCN(CCC23CC4CC(CC(C4)C2)C3)[C@H](C(C)C)C1 | 14 µM (≈ 6.13 µg/mL) | 14 µM (≈ 6.13 µg/mL) | 1.8 µM (≈ 0.788 µg/mL) |  | 
CNC[C@@H](Cc1ccccc1)N1CCN(CCC(c2ccccc2)c2ccccc2)CC1 | 172 µM (≈ 73.6 µg/mL) | 70 µM (≈ 29.9 µg/mL) | 74 µM (≈ 31.6 µg/mL) | 71 µM (≈ 30.4 µg/mL) | 27 µM (≈ 11.5 µg/mL)
CNC[C@@H](Cc1ccccc1)N1CCN(CCC23CC4CC(CC(C4)C2)C3)CC1 | 39 µM (≈ 15.4 µg/mL) | 38 µM (≈ 15 µg/mL) | 57 µM (≈ 22.6 µg/mL) | 83 µM (≈ 32.8 µg/mL) | 68 µM (≈ 26.9 µg/mL)
CCC(C)[C@@H]1CN([C@@H](CNC)Cc2ccccc2)CCN1CCC12CC3CC(CC(C3)C1)C2 (stereo partly drawn) | 37 µM (≈ 16.7 µg/mL) | 28 µM (≈ 12.6 µg/mL) | 38 µM (≈ 17.2 µg/mL) | 48 µM (≈ 21.7 µg/mL) | 41 µM (≈ 18.5 µg/mL)
